Experimental data: patent US20250333405A1, “ANTAGONISTS OF GPR39 PROTEIN” (VASOCARDEA, INC., priority 2024, published 2025)

molecular target: T1, human GPR39 receptor (Homo sapiens, UniProt O43194); experiment: Intracellular calcium response (FLIPR, Calcium-6) in PC3 cells, antagonism of agonist C3 (TC-G 1008) at EC90; type: cell-based; details: functional pKi (-Log10Ki) by modified Cheng-Prusoff from IC50; PC3 cells endogenously expressing human GPR39; 30 μM ZnCl2; agonist C3 (TC-G 1008) at EC90 1.5 μM; read-out: fpKi activity
T1 construct: PC3 Cells, Expressing the Endogenous Human GPR39 Receptor; endogenous in cells; host or cells: PC3 (human prostate adenocarcinoma) cells
T1 sequence (O43194 1-453): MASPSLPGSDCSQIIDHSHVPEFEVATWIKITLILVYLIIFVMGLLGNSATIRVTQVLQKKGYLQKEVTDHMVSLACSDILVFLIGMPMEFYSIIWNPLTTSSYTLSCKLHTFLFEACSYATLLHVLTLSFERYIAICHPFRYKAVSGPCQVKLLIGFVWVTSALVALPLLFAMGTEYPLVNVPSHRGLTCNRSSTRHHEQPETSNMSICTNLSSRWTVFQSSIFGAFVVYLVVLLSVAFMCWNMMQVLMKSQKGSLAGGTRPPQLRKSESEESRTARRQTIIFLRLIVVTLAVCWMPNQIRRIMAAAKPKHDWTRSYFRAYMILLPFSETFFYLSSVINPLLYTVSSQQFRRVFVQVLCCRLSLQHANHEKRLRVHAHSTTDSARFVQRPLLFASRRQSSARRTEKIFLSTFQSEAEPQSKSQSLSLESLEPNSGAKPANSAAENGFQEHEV
Method: Measurement of Intracellular Calcium Response in PC3 Cells, Expressing the Endogenous Human GPR39 Receptor
Human prostate adenocarcinoma (PC3) cells endogenously expressing human GPR39 receptor were seeded into black walls clear-base 384-well plates at a density of 7,500 cells per well in DMEM (Low Glucose) supplemented with 10% heat-inactivated foetal bovine serum and 1% of Pen/Strep and grown overnight at 37° C., 5% CO2. After washing with assay buffer (20 mM HEPES, 137 mM NaCl, 5.4 mM KCl, 10 mM glucose, 0.8 mM MgSO4, 1.3 mM CaCl2), 0.3 mM Na2HPO4, 0.4 mM KH2PO4 4.2 mM NaHCO3, pH 7.4), cells were incubated with Calcium-6 probe (Molecular Devices) at 37° C. for 2 h and then equilibrated at RT for 30 minutes on metal block. The fluorescence was measured in real time by Fluorometric Imaging Plate Reader (FLIPR TETRA, Molecular Devices) (excitation wavelength at 470-495 nm, emission wavelength at 515-575 nm). Compounds of invention were serially diluted in neat DMSO at 1000 fold concentrations and plated into 384-well plates and then 200-fold diluted in assay buffer containing 150 μM ZnCl2 (30 μM final concentration) and 1.1% DMSO (0.32% final concentration). A dual addition FLIPR protocol was used which included a first addition of compounds 200-fold diluted in Assay Buffer containing 150 μM ZnCl2 and 1.1% DMSO and then after 10 minutes a second addition of a submaximal concentration of the hGPR39 receptor agonist, C3 (Tocris, TC-G 1008) at EC90 (concentration producing 90% of the maximal response) value of 1.5 μM. Fluorescence was monitored throughout the run assay. The peak of Ca2+ stimulation (baseline subtracted) was expressed as percentage of the maximal inhibition of the EC90 C3 response and was plotted versus the concentration of test compound. Curve fitting and IC50 estimations are carried out using a four-parameter logistic model using XLfit Software. […] An fpKi less than 5.2 is reported as “+/−”. An fpKi ranging from 5.2 to 5.9 is reported as “+”. An fpKi from 6.0 to 6.5 is reported as “++”. An fpKi from 6.6 to 7.2 is reported as “+++”. An fpKi equal to or greater than 7.3 is reported as “++++”.

**Q.** Which Ki does the source give for `O=C(Nc1ccc(C(=O)N2C3CCC2COC3)c(N2CCCC2)c1)C1CC1` [Example 7, N-[4-(3-oxa-8-azabicyclo[3.2.1]octane-8-carbonyl)-3-pyrrolidin-1-ylphenyl]cyclopropanecarboxamide] here?
**A.** 1260 to 6310 nM

**Q.** Which Ki does the source give for `O=C(Nc1ccc(C(=O)N2CC3CC(C2)O3)c(N2CCCC2)c1)C1CC1` [Example 8, N-[4-(6-oxa-3-azabicyclo[3.1.1]heptane-3-carbonyl)-3-pyrrolidin-1-ylphenyl]cyclopropanecarboxamide] here?
**A.** 1260 to 6310 nM

**Q.** `O=C(Nc1ccc(C(=O)N2CC3CC(C3)C2)c(N2CCCC2)c1)C1CC1` [Example 9, N-[4-(3-azabicyclo[3.1.1]heptane-3-carbonyl)-3-pyrrolidin-1-ylphenyl]cyclopropanecarboxamide] was tested. Which Ki did it give?
**A.** 316 to 1000 nM

**Q.** `CN1CCN(C(=O)c2ccc(Nc3nc4ccccn4n3)cc2N2CCCC2)C(c2ccccc2)C1` (centres unmarked) [Example 19, (4-methyl-2-phenylpiperazin-1-yl)-[2-pyrrolidin-1-yl-4-([1,2,4]triazolo[1,5-a]pyridin-2-ylamino)phenyl]methanone] was tested. Which Ki did it give?
**A.** > 6310 nM

**Q.** With `Cc1nnc(Nc2ccc(C(=O)N3CCN(C)CC3c3ccccc3)c(N3CCCC3)c2)s1` (centres unmarked) [Example 20, (4-methyl-2-phenylpiperazin-1-yl)-[4-[(5-methyl-1,3,4-thiadiazol-2-yl)amino]-2-pyrrolidin-1-ylphenyl]methanone] as the molecule, how does the Ki read?
**A.** 1260 to 6310 nM

**Q.** With `CN1CCN(C(=O)c2ccc(-c3cn[nH]c3)cc2N2CCCC2)C(c2ccccc2)C1` (centres unmarked) [Example 21, (4-methyl-2-phenylpiperazin-1-yl)-[4-(1H-pyrazol-4-yl)-2-pyrrolidin-1-ylphenyl]methanone] as the molecule, how does the Ki read?
**A.** > 6310 nM

**Q.** `Cn1ccc(-c2cc(NC(=O)C3CC3)ccc2C(=O)N2CCC(F)(F)CC2)n1` [Example 22, N-[4-(4,4-difluoropiperidine-1-carbonyl)-3-(1-methylpyrazol-3-yl)phenyl]cyclopropanecarboxamide] was tested. Which Ki did it give?
**A.** 63.1 to 251 nM

**Q.** For `CC(C)n1ccc(-c2cc(NC(=O)C3CC3)ccc2C(=O)N2CCC(F)(F)CC2)n1` [Example 23, N-[4-(4,4-difluoropiperidine-1-carbonyl)-3-(1-propan-2-ylpyrazol-3-yl)phenyl]cyclopropanecarboxamide], which Ki is on record?
**A.** ≤ 50.1 nM

**Q.** How did the Ki turn out when `CCCN1CCN(C(=O)c2ccc(NC(=O)C3CC3)cc2-c2ccn(C(C)C)n2)CC1` [Example 24, N-[3-(1-propan-2-ylpyrazol-3-yl)-4-(4-propylpiperazine-1-carbonyl)phenyl]cyclopropanecarboxamide] was run?
**A.** ≤ 50.1 nM

**Q.** `Cc1ccc(-c2cc(NC(=O)C3CC3)ccc2C(=O)N2CCS(=O)(=O)CC2)s1` [Example 25, N-[4-(1,1-dioxo-1,4-thiazinane-4-carbonyl)-3-(5-methylthiophen-2-yl)phenyl]cyclopropanecarboxamide] was tested. Which Ki did it give?
**A.** 316 to 1000 nM

**Q.** With `N#Cc1ccc(-c2cc(NC(=O)C3CC3)ccc2C(=O)N2CCS(=O)(=O)CC2)s1` [Example 26, N-[3-(5-cyanothiophen-2-yl)-4-(1,1-dioxo-1,4-thiazinane-4-carbonyl)phenyl]cyclopropanecarboxamide] as the molecule, how does the Ki read?
**A.** 1260 to 6310 nM

**Q.** How did the Ki turn out when `O=C(Nc1ccc(C(=O)N2CCS(=O)(=O)CC2)c(-c2cnc(C(F)(F)F)s2)c1)C1CC1` [Example 27, N-[4-(1,1-dioxo-1,4-thiazinane-4-carbonyl)-3-[2-(trifluoromethyl)-1,3-thiazol-5-yl]phenyl]cyclopropanecarboxamide] was run?
**A.** 1260 to 6310 nM

**Q.** `CC(C)n1ccc(-c2cc(NC(=O)C3CC3)ccc2C(=O)N2CCS(=O)(=O)CC2)n1` [Example 28, N-[4-(1,1-dioxo-1,4-thiazinane-4-carbonyl)-3-(1-propan-2-ylpyrazol-3-yl)phenyl]cyclopropanecarboxamide] was tested. Which Ki did it give?
**A.** ≤ 50.1 nM

**Q.** With `O=C(Nc1ccc(C(=O)N2CCS(=O)(=O)CC2)c(-c2ccc(C(F)(F)F)s2)c1)C1CC1` [Example 29, N-[4-(1,1-dioxo-1,4-thiazinane-4-carbonyl)-3-[5-(trifluoromethyl)thiophen-2-yl]phenyl]cyclopropanecarboxamide] as the molecule, how does the Ki read?
**A.** 316 to 1000 nM

**Q.** With `O=C(Nc1ccc(C(=O)N2CCS(=O)(=O)CC2)c(-c2cccc(C(F)(F)F)n2)c1)C1CC1` [Example 37, N-[4-(1,1-dioxo-1,4-thiazinane-4-carbonyl)-3-[6-(trifluoromethyl)pyridin-2-yl]phenyl]cyclopropanecarboxamide] as the molecule, how does the Ki read?
**A.** ≤ 50.1 nM

**Q.** For `O=C(Nc1ccc(C(=O)N2CCC3(CC2)COC3)c(-c2cccc(C(F)(F)F)n2)c1)C1CC1` [Example 38, N-[4-(2-oxa-7-azaspiro[3.5]nonane-7-carbonyl)-3-[6-(trifluoromethyl)pyridin-2-yl]phenyl]cyclopropanecarboxamide], which Ki is on record?
**A.** ≤ 50.1 nM

**Q.** Which Ki does the source give for `COC1(C)CCN(C(=O)c2ccc(-c3nnc(C)[nH]3)cc2-c2ccn(C(C)C)n2)CC1` [Example 39, [2-(1-isopropylpyrazol-3-yl)-4-(5-methyl-4H-1,2,4-triazol-3-yl)phenyl]-(4-methoxy-4-methyl-1-piperidyl)methanone] here?
**A.** ≤ 50.1 nM

**Q.** With `Cc1nnc(-c2ccc(C(=O)N3CCC(C(C)(C)C)CC3)c(-c3ccn(C(C)C)n3)c2)[nH]1` [Example 40, (4-tert-butyl-1-piperidyl)-[2-(1-isopropylpyrazol-3-yl)-4-(5-methyl-4H-1,2,4-triazol-3-yl)phenyl]methanone] as the molecule, how does the Ki read?
**A.** 63.1 to 251 nM

**Q.** How did the Ki turn out when `Cc1nnc(-c2ccc(C(=O)N3CCC4(CCO4)CC3)c(-c3ccn(C(C)C)n3)c2)[nH]1` [Example 41, [2-(1-isopropylpyrazol-3-yl)-4-(5-methyl-4H-1,2,4-triazol-3-yl)phenyl]-(1-oxa-7-azaspiro[3.5]nonan-7-yl)methanone] was run?
**A.** ≤ 50.1 nM

**Q.** Which Ki does the source give for `CCOC1CCN(C(=O)c2ccc(-c3nnc(C)[nH]3)cc2-c2ccn(C(C)C)n2)CC1` [Example 42, (4-ethoxy-1-piperidyl)-[2-(1-isopropylpyrazol-3-yl)-4-(5-methyl-4H-1,2,4-triazol-3-yl)phenyl]methanone] here?
**A.** ≤ 50.1 nM

**Q.** For `Cc1nnc(-c2ccc(C(=O)N3CCC(C)(F)CC3)c(-c3ccn(C(C)C)n3)c2)[nH]1` [Example 43, (4-fluoro-4-methylpiperidin-1-yl)-[4-(5-methyl-4H-1,2,4-triazol-3-yl)-2-(1-propan-2-ylpyrazol-3-yl)phenyl]methanone], which Ki is on record?
**A.** ≤ 50.1 nM

**Q.** How did the Ki turn out when `CCn1nccc1-c1cc(-c2nnc(C)[nH]2)ccc1C(=O)N1CCC(F)(F)CC1` [Example 44, (4,4-difluoropiperidin-1-yl)-[2-(2-ethylpyrazol-3-yl)-4-(5-methyl-4H-1,2,4-triazol-3-yl)phenyl]methanone] was run?
**A.** 1260 to 6310 nM

**Q.** `Cc1nnc(-c2ccc(C(=O)N3CCC(C(F)(F)F)CC3)c(-c3ccn(CC(C)C)n3)c2)[nH]1` [Example 45, [2-[1-(2-methylpropyl)pyrazol-3-yl]-4-(5-methyl-4H-1,2,4-triazol-3-yl)phenyl]-[4-(trifluoromethyl)piperidin-1-yl]methanone] was tested. Which Ki did it give?
**A.** ≤ 50.1 nM

**Q.** With `Cc1nnc(-c2ccc(C(=O)N3CCC(F)(F)CC3)c(-c3ccn(C)n3)c2)[nH]1` [Example 46, (4,4-difluoropiperidin-1-yl)-[2-(1-methylpyrazol-3-yl)-4-(5-methyl-4H-1,2,4-triazol-3-yl)phenyl]methanone] as the molecule, how does the Ki read?
**A.** 63.1 to 251 nM

**Q.** How did the Ki turn out when `Cc1nnc(-c2ccc(C(=O)N3CCC(C(F)(F)F)CC3)c(-c3ccn(C4CCC4)n3)c2)[nH]1` [Example 47, [2-(1-cyclobutylpyrazol-3-yl)-4-(5-methyl-4H-1,2,4-triazol-3-yl)phenyl]-[4-(trifluoromethyl)piperidin-1-yl]methanone] was run?
**A.** ≤ 50.1 nM

**Q.** For `Cc1nnc(-c2ccc(C(=O)N3CCC(C(F)(F)F)CC3)c(-c3ccn(C(C)C)n3)c2)[nH]1` [Example 48, [4-(5-methyl-4H-1,2,4-triazol-3-yl)-2-(1-propan-2-ylpyrazol-3-yl)phenyl]-[4-(trifluoromethyl)piperidin-1-yl]methanone], which Ki is on record?
**A.** ≤ 50.1 nM
